Experimental findings from patent publication EP0400686A1, “2-Amino-9-[1,3bis-(isopropoxy)-propyl-2-oxymethyl]-purine, its utilization and medicaments containing it” (HOECHST AKTIENGESELLSCHAFT, priority 1985, dated 1987) are described below.

The assay concerns Herpes simplex Typ 1. Briefly: In vivo test: NMRI mice infected intraperitoneally with Herpes simplex type 1, treated i.p. twice daily for 5 days, survival rate. The following applies: Herpes simplex Typ 1 an der NMRI-Maus. The source says:
NMRI-Mäuse, spezifisch pathogenfrei, im Gewicht von etwa 15 g wurden intraperitoneal mit Herpes simplex Typ 1 infiziert und anschließend mit den beschriebenen Verbindungen intraperitoneal therapiert. Als Vergleich diente stets Acyclovir (ACV). Die Behandlung erfolgte zweimal täglich über 5 Tage, beginnend nach der Infektion. Der Behandlungserfolg wurde anhand des Krankheitsverlaufes und der Überlebensrate gegenüber den unbehandelten Infektionskontrollen bestimmt. Letztere erhielten anstelle der zu prüfenden Verbindungen eine wasserlösliche Methylhydroxyäthylcellulose (Viskosität […] in 2 %iger Lösung) (^(R)Tylose MH 300 P) appliziert.
Die chemaotherapeutische Wirkung erfindungsgemäßer Verbindungen ist aus Tabelle 1 ersichtlich.

Where [1] appears, read: Dosierung 10 x 0,2 mg/Maus i.p.
Setting [2] is: Dosierung 10 x 0,6 mg/Maus i.p.

For the compound `CC(=O)OCC(CN=[N+]=[N-])OCn1cnc2c(=O)[nH]c(N)nc21` (racemic) [Verbindung 9, 9-(1-Azidomethyl-2-acetoxyäthoxymethyl)-guanin], the “Mittlere Überlebensrate x/10” value is given as 9/10 under setting [1] and 9/10 under setting [2].
Regarding `CC(=O)OCC(COC(C)C)OCn1cnc2c(=O)[nH]c(N)nc21` (racemic) [Verbindung 20, 9-(1-Isopropoxymethyl-2-acetoxyäthoxymethyl)-guanin], the “Mittlere Überlebensrate x/10” value is, setting by setting: under setting [1], 10/10; under setting [2], 10/10.
